# Test results from patent US11464795B2, “Saponin compound targeting PD-1 and application thereof” (EAST CHINA UNIVERSITY OF SCIENCE AND TECHNOLOGY, priority 2017, dated 2022).
# Experiments:
# [1] = biological target: T1, human PD-1 binding to human PD-L1 (Homo sapiens, UniProt Q15116); assay: SPR competition of compounds with PD-L1 protein for binding PD-1; details: PD-L1 on CM5 chip, compound pre-incubated with 3 μM PD-1 protein
# T1 construct: amino acids 34-150 of human PD-1; made in house; PD-L1: purchased from Beijing Yiqiao Shenzhou Biotechnology Co., Ltd., no catalogue number
# T1 sequence (Q15116 34-150): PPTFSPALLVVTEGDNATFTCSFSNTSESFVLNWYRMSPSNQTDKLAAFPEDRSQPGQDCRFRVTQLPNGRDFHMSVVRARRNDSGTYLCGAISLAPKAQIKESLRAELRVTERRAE
# Protocol: Based on the results in the above examples, the present inventors investigated whether the compound can competite with PD-L1 for binding PD-1, and thus block PD-1 from binding PD-L1. PD-L1 protein was purchased from Beijing Yiqiao Shenzhou Biotechnology Co., Ltd. Specific experimental steps are as follows: 50 μg/ml PD-L1 protein was coupled to CM5 chip by amino coupling method. The coupling amount was about 3780 RU. Compounds of different concentrations were incubated with 3 μM PD-1 protein on ice for 30 min, and flowed across the surface of the chip along with the running buffer (1.05×PBS, 0.05% P20, 1% DMSO) at a flow rate of 30 μL/min, for binding time of 90 s and dissociation time of 120 s. PD-1 protein bound to PD-L1 protein on the chip decreases as the concentration of the compound increases, therefore, the response value decreases. The results of this experiment indicate that compounds can block PD-1 from binding PD-L1.
# [2] = biological target: T2, recombinant human PD-1 protein (Homo sapiens, UniProt Q15116); assay: SPR determination of binding constants between saponin natural products and PD-1 protein; details: PD-1 coupled to CM7 chip, steady-state fitting, read-out: Binding affinity KD
# T2 construct: amino acids 34-150 of human PD-1; made in house; host or cells: E. coli BL21 (DE3), pET-28a
# T2 sequence (Q15116 34-150): as above
# Protocol: Surface plasmon resonance (SPR) was used to determine the binding affinity between natural products and PD-1 protein. Specific experimental steps are as follows: Firstly, the purified protein was exchanged into 50 mM Hepes, pH 8.0, 250 mM NaCl, 1 mM DTT buffer, and diluted to 50 μg/ml with sodium acetate pH 4.5. The protein was coupled to CM7 chip with a coupling kit for 600 s at a flow rate of 10 μl/min. The final coupling amount was about 13000 RU. After the coupling was completed, the CM7 chip was equilibrated to a stable state in a buffer solution (1.05×PBS, 0.05% P20). […] The final data was analyzed by BIAevaluation2.0 software, and KD values were obtained by steady-state fitting.
# Jurkat T cells = assay: Detection of IL-2 secretion in T cells by ELISA (BxPC-3 / Jurkat T co-culture); type: cell-based; details: for Increase of the amount of IL-2 produced by Jurkat T cells: 50 μM compound, BxPC-3 tumor cells and Jurkat T cells co-cultured 3:1, 48 h, ELISA; for Restoration of the ability of depleted Jurkat T cells to secrete IL-2: FIG. 5 legend, result in words
# Protocol: The inventors selected several compounds for the evaluation experiment of cell function. We co-cultured stimulated BxPC-3 tumor cells and activated Jurkat T cells in a 96-well plate at a ratio of 3:1. Jurkat T cells were cultured alone as a negative control. 50 μM of compound was added into the experimental group, and a D-hank's solution with the same DMSO content was used as a negative control. Each group was incubated in a carbon dioxide cell incubator for 48 h. The supernatant medium was collected and detected for the amount of IL-2 by an ELISA kit. Experiments were performed in triplicate. After tumor cells were co-cultured with T cells, the amount of IL-2 produced by the T cells was suppressed by about 55%. After 50 μM of compound 6 was added, the amount of IL-2 produced by Jurkat T cells can be increased by about 30%; after 50 μM of compound 8 was added, the amount of IL-2 produced by Jurkat T cells can be increased by about 1^7%; after 50 μM of compound 10 was added, the amount of IL-2 produced by Jurkat T cells can be increased by about 30%; after 50 μM of compound 11 was added, the amount of IL-2 produced by Jurkat T cells can be increased by about 12%; and after 50 μM of compound 13 was added, the amount of IL-2 produced by Jurkat T cells can be increased by about 23%. Such effects can be achieved in three repeated experiments. The results of this experiment indicate that the compounds can, to a certain extent, restore the function of T cells.
structure (smiles),measurement,setting,value
C[C@@H]1CC[C@]2(C(=O)O)CC[C@]3(C)C(=CCC4[C@@]5(C)CC[C@H](O)C(C)(C)C5CC[C@]43C)C2[C@H]1C (stereo partly drawn) [Compound 9],Blocking of human PD-1 binding to human PD-L1,[1],can block human PD-1 from binding to human PD-L1
same,Kd,[2],4920 nM
C[C@@H]1CC[C@]2(C(=O)O)CC[C@]3(C)C(=CC[C@@H]4[C@@]5(C)CC[C@H](O[C@@H]6OC[C@H](O)[C@H](O)[C@H]6O)C(C)(C)[C@@H]5CC[C@]43C)[C@@H]2[C@]1(C)O [Compound 2],Blocking of human PD-1 binding to human PD-L1,[1],can block human PD-1 from binding to human PD-L1
same,Kd,[2],440 nM
CC1(C)CC[C@]2(C(=O)O)CC[C@]3(C)C(=CCC4[C@@]5(C)CC[C@H](O)C(C)(C)C5CC[C@]43C)C2C1 (stereo partly drawn) [Compound 10],Increase of the amount of IL-2 produced by Jurkat T cells,Jurkat T cells,about 30%
same,Restoration of the ability of depleted Jurkat T cells to secrete IL-2,Jurkat T cells,can restore the ability of depleted Jurkat T cells to secrete IL-2
same,Blocking of human PD-1 binding to human PD-L1,[1],can block human PD-1 from binding to human PD-L1
same,Kd,[2],2710 nM
CC1(C)CC[C@]2(C(=O)O)CC[C@]3(C)C(=CC[C@@H]4[C@@]5(C)CC[C@H](O)[C@@](C)(CO)[C@@H]5CC[C@]43C)[C@@H]2C1 [Compound 5],Blocking of human PD-1 binding to human PD-L1,[1],can block human PD-1 from binding to human PD-L1
same,Kd,[2],5360 nM
CC1(C)CCC2(C(=O)O)CC[C@]3(C)C(=CCC4[C@@]5(C)C[C@@H](O)[C@H](O)C(C)(C)C5CC[C@]43C)C2C1 (stereo partly drawn) [Compound 12],Blocking of human PD-1 binding to human PD-L1,[1],can block human PD-1 from binding to human PD-L1
C[C@H]1[C@H](C)CC[C@]2(C(=O)O)CC[C@]3(C)C(=CC[C@@H]4[C@@]5(C)C[C@@H](O)[C@H](O)C(C)(C)[C@@H]5CC[C@]43C)[C@H]12 [Compound 11],Increase of the amount of IL-2 produced by Jurkat T cells,Jurkat T cells,about 12%
same,Restoration of the ability of depleted Jurkat T cells to secrete IL-2,Jurkat T cells,can restore the ability of depleted Jurkat T cells to secrete IL-2
same,Blocking of human PD-1 binding to human PD-L1,[1],can block human PD-1 from binding to human PD-L1
same,Kd,[2],1400 nM
CC1(C)CC[C@]2(C(=O)O)CC[C@]3(C)C(=CC[C@@H]4[C@@]5(C)CC[C@H](O[C@@H]6O[C@H](C(=O)O)[C@@H](O)[C@H](O[C@@H]7OC[C@@H](O)[C@H](O)[C@H]7O)[C@H]6O)C(C)(C)[C@@H]5CC[C@]43C)[C@@H]2C1 [Compound 6],Increase of the amount of IL-2 produced by Jurkat T cells,Jurkat T cells,about 30%
same,Restoration of the ability of depleted Jurkat T cells to secrete IL-2,Jurkat T cells,can restore the ability of depleted Jurkat T cells to secrete IL-2
same,Blocking of human PD-1 binding to human PD-L1,[1],can block human PD-1 from binding to human PD-L1
same,Kd,[2],40 nM
CC1(C)CC[C@]2(C(=O)O[C@@H]3O[C@H](CO)[C@@H](O)[C@H](O)[C@H]3O)CC[C@]3(C)C(=CCC4[C@@]5(C)CCC(OC6O[C@H](C(=O)O)[C@@H](O)[C@H](O)[C@H]6O)C(C)(C)C5CC[C@]43C)[C@H]2C1 (stereo partly drawn) [Compound 4],Blocking of human PD-1 binding to human PD-L1,[1],can block human PD-1 from binding to human PD-L1
same,Kd,[2],560 nM
C[C@@H]1O[C@@H](O[C@H]2[C@H](O[C@H]3[C@H](O[C@H]4CC[C@@]5(C)[C@@H](CC[C@]6(C)[C@@H]5CC=C5[C@@H]7CC(C)(C)C[C@@H](O)[C@]7(C)CC[C@]56C)[C@@]4(C)CO)O[C@H](C(=O)O)[C@@H](O)[C@@H]3O)O[C@H](CO)[C@H](O)[C@@H]2O)[C@H](O)[C@H](O)[C@H]1O [Compound 7],Blocking of human PD-1 binding to human PD-L1,[1],can block human PD-1 from binding to human PD-L1
same,Kd,[2],2190 nM
C[C@H]1[C@H](C)CC[C@]2(C(=O)O)CC[C@]3(C)C(=CC[C@@H]4[C@@]5(C)C[C@@H](O)[C@@H](O)C(C)(C)[C@@H]5CC[C@]43C)[C@H]12 [Compound 13],Increase of the amount of IL-2 produced by Jurkat T cells,Jurkat T cells,about 23%
same,Restoration of the ability of depleted Jurkat T cells to secrete IL-2,Jurkat T cells,can restore the ability of depleted Jurkat T cells to secrete IL-2
same,Blocking of human PD-1 binding to human PD-L1,[1],can block human PD-1 from binding to human PD-L1
same,Kd,[2],1770 nM
C[C@@H]1OC(O[C@H]2C(O[C@H]3CC[C@@]4(C)C(CC[C@]5(C)C4CC=C4C6CC(C)(C)CC[C@]6(C(=O)O)CC[C@]45C)[C@]3(C)CO)OC[C@H](OC3O[C@H](CO)[C@@H](O)[C@H](O)[C@H]3O)[C@@H]2O)[C@H](O)[C@H](O)[C@H]1O (stereo partly drawn) [Compound 3],Kd,[2],2100 nM
C[C@@H]1CC[C@@]2(C(=O)O)CC[C@]3(C)C(=CCC4[C@@]5(C)C[C@@H](O)[C@H](O)C(C)(C)C5CC[C@]43C)C2[C@H]1C (stereo partly drawn) [Compound 8],Restoration of the ability of depleted Jurkat T cells to secrete IL-2,Jurkat T cells,can restore the ability of depleted Jurkat T cells to secrete IL-2
same,Blocking of human PD-1 binding to human PD-L1,[1],can block human PD-1 from binding to human PD-L1
same,Kd,[2],5020 nM
CC1(C)CC[C@]2(C(=O)O[C@@H]3O[C@H](CO)[C@@H](O)[C@H](O)[C@H]3O)CC[C@]3(C)C(=CC[C@@H]4[C@@]5(C)CC[C@H](OC6O[C@H](C(=O)O)[C@@H](O)[C@H](O)[C@H]6OC6O[C@H](CO)[C@@H](O)[C@H](O)[C@H]6O)C(C)(C)[C@@H]5CC[C@]43C)[C@@H]2C1 (stereo partly drawn) [Compound 1],Blocking of human PD-1 binding to human PD-L1,[1],can block human PD-1 from binding to human PD-L1
same,Kd,[2],2230 nM
